Like-named read-outs stand apart in the source and are kept apart here.
Legend:
Type in all cases: cell-based
opioid κ receptor = molecular target: T1, opioid κ receptor (Homo sapiens, UniProt P41145); assay: Opioid receptor functional test (Lance Ultra cAMP Kit), κ receptor agonist activity; conditions: for Emax at 10 µM: maximum concentration (10 μM), reaction did not reach the maximum, EC50 N.C., relative to U-69593
T1 construct: expressed in transfected cells; host or cells: CHO cells
Description: (§1) Functional activities of the compounds of the present invention for the μ, […], and κ opioid receptors were investigated.
(§2) The test was performed according to a prescribed method by using Lance Ultra cAMP Kit (Perkin-Elmer). The agonist activities were evaluated as follows. The CHO cells expressing each opioid receptor (μ, δ, or κ) and a test compound were reacted in an assay buffer (1×HBSS, […], pH 7.4, […] IBMX (isobutylmethylxanthine), 7.5% BSA) for 30 minutes in the presence of 10 μM forskolin. Then, the cAMP detection reagent included in the kit was added, and after 1 hour, time-resolved fluorescence measurements were performed by using the EnVision plate reader (Perkin-Elmer). A dose-responce curve of the test compound was obtained from fluorescence values measured at 665 nm, and EC50 value and Emax value were calculated. The Emax value was calculated as a ratio of the maximum responce of the test compound with respect to the maximum responce of each control agent (SNC80 for δ, DAMGO for μ, U-69593 for κ) taken as 100%.
(§3) 1): Hydrochloride was used.

opioid μ receptor = molecular target: T2, opioid μ receptor (Homo sapiens, UniProt P35372); assay: Opioid receptor functional test (Lance Ultra cAMP Kit), μ receptor agonist activity; conditions: for EC50: CHO cells expressing μ opioid receptor, 10 μM forskolin, cAMP; for Emax at 10 µM: maximum concentration (10 μM), reaction did not reach the maximum, EC50 N.C., relative to DAMGO
T2 construct: expressed in transfected cells; host or cells: CHO cells
T2 sequence (P35372 whole entry): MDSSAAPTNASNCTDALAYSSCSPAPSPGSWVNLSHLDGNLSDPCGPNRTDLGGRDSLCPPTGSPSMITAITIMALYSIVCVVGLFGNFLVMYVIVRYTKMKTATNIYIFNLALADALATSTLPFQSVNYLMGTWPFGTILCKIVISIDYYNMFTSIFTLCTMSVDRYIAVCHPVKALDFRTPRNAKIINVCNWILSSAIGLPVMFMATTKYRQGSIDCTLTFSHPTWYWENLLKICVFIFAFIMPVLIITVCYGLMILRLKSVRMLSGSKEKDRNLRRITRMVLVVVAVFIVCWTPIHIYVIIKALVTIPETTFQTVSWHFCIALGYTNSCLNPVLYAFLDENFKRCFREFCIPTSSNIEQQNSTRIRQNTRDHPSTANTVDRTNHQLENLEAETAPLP
Description: as §1, §2, §3

opioid δ receptor = molecular target: T3, opioid δ receptor (Homo sapiens, UniProt P41143); assay: Opioid receptor functional test (Lance Ultra cAMP Kit), δ receptor agonist activity; conditions: for Emax: read-out: δ Receptor Emax
T3 construct: expressed in transfected cells; host or cells: CHO cells
T3 sequence (P41143 whole entry): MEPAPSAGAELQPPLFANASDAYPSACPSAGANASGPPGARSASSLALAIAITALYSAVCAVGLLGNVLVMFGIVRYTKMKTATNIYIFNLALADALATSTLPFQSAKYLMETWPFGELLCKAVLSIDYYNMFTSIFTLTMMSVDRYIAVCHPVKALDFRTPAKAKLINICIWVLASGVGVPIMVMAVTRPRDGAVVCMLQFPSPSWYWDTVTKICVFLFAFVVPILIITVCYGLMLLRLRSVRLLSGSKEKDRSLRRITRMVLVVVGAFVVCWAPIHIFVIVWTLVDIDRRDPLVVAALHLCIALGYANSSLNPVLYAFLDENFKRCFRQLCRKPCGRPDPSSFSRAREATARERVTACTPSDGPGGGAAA
Description: as §1, §2, §3

[1] = read-out: μ Receptor responce rate at the maximum concentration (reference value)
[2] = CHO cells expressing δ opioid receptor, 10 μM forskolin, cAMP, hydrochloride was used, read-out: δ Receptor EC50 value
[3] = maximum response relative to SNC80 taken as 100%, hydrochloride was used
[4] = maximum response relative to DAMGO taken as 100%, hydrochloride was used, read-out: μ Receptor Emax
[5] = hydrochloride was used, read-out: κ Receptor responce rate at the maximum concentration (reference value)
[6] = CHO cells expressing κ opioid receptor, 10 μM forskolin, cAMP, hydrochloride was used, read-out: κ Receptor EC50 value
[7] = maximum response relative to U-69593 taken as 100%, hydrochloride was used, read-out: κ Receptor Emax
[8] = hydrochloride was used, read-out: μ Receptor responce rate at the maximum concentration (reference value)

T1 sequence (P41145 whole entry): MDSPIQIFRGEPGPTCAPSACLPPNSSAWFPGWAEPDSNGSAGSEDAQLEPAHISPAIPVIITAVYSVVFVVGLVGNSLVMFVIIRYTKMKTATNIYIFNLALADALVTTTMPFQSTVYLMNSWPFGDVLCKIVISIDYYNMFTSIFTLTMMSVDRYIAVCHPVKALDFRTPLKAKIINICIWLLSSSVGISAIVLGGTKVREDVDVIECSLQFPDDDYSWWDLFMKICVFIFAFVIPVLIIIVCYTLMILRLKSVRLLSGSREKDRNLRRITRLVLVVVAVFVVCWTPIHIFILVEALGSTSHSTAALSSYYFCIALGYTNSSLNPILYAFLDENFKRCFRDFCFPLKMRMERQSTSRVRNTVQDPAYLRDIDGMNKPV

SMILES | Emax (opioid κ receptor; read-out: κ Receptor responce rate at the maximum concentration (reference value)) [%] | Emax (opioid μ receptor; [1]) [%] | EC50 (opioid δ receptor; [2]) [nM] | Emax (opioid δ receptor; [3]) [%] | EC50 (opioid κ receptor) [nM] | Emax (opioid κ receptor; read-out: κ Receptor Emax) [%] | EC50 (opioid μ receptor; hydrochloride was used) [nM] | Emax (opioid μ receptor; [4]) [%] | Emax at 10 µM (opioid κ receptor; [5]) [%] | EC50 (opioid κ receptor; [6]) [nM] | Emax (opioid κ receptor; [7]) [%] | Emax at 10 µM (opioid μ receptor; [8]) [%] | EC50 (opioid δ receptor) [nM] | Emax (opioid δ receptor) [%]
O=C(c1ccccc1)N1C[C@H]2O[C@@]34CC[C@@H]1[C@@H]2[C@@]31CCN(CC2CC2)[C@@H]4Cc2ccc(O)cc21 [Compound 10, [(1S,3aR,5aS,6R,11bR,11cS)-14-(cyclopropylmethyl)-10-hydroxy-1,2,3a,4,5,6,7,11c-octahydro-3H-6,11b-(iminoethano)-1,5a-epoxynaphtho[1,2-e]indol-3-yl](phenyl)methanone] | 2.9 | 3.9 | < 1 | 127 |  |  |  |  |  |  |  |  |  | 
CN1CC[C@@]23c4cc(O)ccc4C[C@@H]1[C@]21CC[C@@H]2[C@H]3[C@@H](CN2C(=O)c2ccccc2)O1 [Compound 12, [(1S,3aR,5aS,6R,11bR,11cS)-10-hydroxy-14-methyl-1,2,3a,4,5,6,7,11c-octahydro-3H-6,11b-(iminoethano)-1,5a-epoxynaphtho[1,2-e]indol-3-yl](phenyl)methanone] |  |  | < 1 | 94 | > 10 | 96 | > 1 | 103 |  |  |  |  |  | 
O=C(c1ccccc1)N1C[C@H]2O[C@@]34CC[C@@H]1[C@@H]2[C@@]31CCN(CCO)[C@@H]4Cc2ccc(O)cc21 [Compound 27, [(1S,3aR,5aS,6R,11bR,11cS)-10-hydroxy-14-(2-hydroxyethyl)-1,2,3a,4,5,6,7,11c-octahydro-3H-6,11b-(iminoethano)-1,5a-epoxynaphtho[1,2-e]indol-3-yl](phenyl)methanone] |  |  | < 10 | 95 |  |  | > 50 | 34 | 33 |  |  |  |  | 
Oc1ccc2c(c1)[C@]13CCN(CC4CC4)[C@H](C2)[C@]12CC[C@@H]1[C@H]3[C@@H](CN1c1ccccc1)O2 [Compound 31, (1S,3aR,5aS,6R,11bR,11cS)-14-(cyclopropylmethyl)-3-phenyl-2,3,3a,4,5,6,7,11c-octahydro-1H-6,11b-(iminoethano)-1,5a-epoxynaphtho[1,2-e]indol-10-ol] |  |  | < 10 | 46 |  |  |  |  |  | > 1 | 23 | 14 |  | 
O=C(c1ccco1)N1C[C@H]2O[C@@]34CC[C@@H]1[C@@H]2[C@@]31CCN(CC2CC2)[C@@H]4Cc2ccc(O)cc21 [Compound 50, [(1S,3aR,5aS,6R,11bR,11cS)-14-cyclopropylmethyl-10-hydroxy-1,2,3a,4,5,6,7,11c-octahydro-3H-6,11b-(iminoethano)-1,5a-epoxynaphtho[1,2-e]indol-3-yl](2-furyl)methanone] |  |  | < 1 | 82 |  |  |  |  | 12 |  |  | 5.4 |  | 
O=C(/C=C/c1ccccc1)N1C[C@H]2OC34CCC1C2C31CCN(CC2CC2)C4Cc2ccc(O)cc21 (stereo partly drawn) [Compound 57, (2E)-1-[(1S,3aR,5aS,6R,11bR,11cS)-14-(cyclopropylmethyl)-10-hydroxy-1,2,3a,4,5,6,7,11c-octahydro-3H-6,11b-(iminoethano)-1,5a-epoxynaphtho[1,2-e]indol-3-yl]-3-phenylpropenone] |  |  | < 10 | 63 |  |  |  |  | 25 |  |  | 3 |  | 
O=S(=O)(c1ccccc1)N1C[C@H]2O[C@@]34CC[C@@H]1[C@@H]2[C@@]31CCN(CC2CC2)[C@@H]4Cc2ccc(O)cc21 [Compound 58, (1S,3aR,5aS,6R,11bR,11cS)-3-benzenesulfonyl-14-(cyclopropylmethyl)-2,3,3a,4,5,6,7,11c-octahydro-1H-6,11b-(iminoethano)-1,5a-epoxynaphtho[1,2-e]indol-10-ol] |  |  |  |  |  |  | > 1 | 54 | 19 |  |  |  | < 10 | 66
O=C(c1ccccc1)N1C[C@H]2O[C@@]34CC[C@@H]1[C@@H]2[C@@]31CCN(CC2CC2)[C@@H]4Cc2cccc(O)c21 [Compound 68, [(1S,3aR,5aS,6R,11bR,11cS)-14-(cyclopropylmethyl)-11-hydroxy-1,2,3a,4,5,6,7,11c-octahydro-3H-6,11b-(iminoethano)-1,5a-epoxynaphtho[1,2-e]indol-3-yl](phenyl)methanone] |  |  | < 10 | 90 |  |  | > 100 | 56 |  | > 100 | 99 |  |  | 
CCCN1CC[C@@]23c4cc(O)ccc4C[C@@H]1[C@]21CC[C@@H]2[C@H]3[C@@H](CN2C(=O)c2ccccc2)C1 [Compound 83, [(1S,3aR,5aS,6R,11bR,11cS)-10-hydroxy-14-propyl-1,2,3a,4,5,6,7,11c-octahydro-3H-6,11b-(iminoethano)-1,5a-methanonaphtho[1,2-e]indol-3-yl](phenyl)methanone] |  |  | < 1 | 99 |  |  |  |  | 2.1 |  |  | 7.9 |  | 
O=C(c1ccccc1)N1C[C@H]2C[C@@]34CC[C@@H]1[C@@H]2[C@@]31CCN(CCF)[C@@H]4Cc2ccc(O)cc21 [Compound 84, [(1S,3aR,5aS,6R,11bR,11cS)-14-(2-fluoroethyl)-10-hydroxy-1,2,3a,4,5,6,7,11c-octahydro-3H-6,11b-(iminoethano)-1,5a-methanonaphtho[1,2-e]indol-3-yl](phenyl)methanone] |  |  | < 10 | 99 |  |  |  |  | 5.9 |  |  | 20 |  | 
CC(C)N(Cc1ccccc1)C(=O)N1C[C@H]2C[C@@]34CCC1C2[C@@]31CCN(CC2CC2)[C@@H]4Cc2ccc(O)cc21 (stereo partly drawn) [Compound 155, (1S,5aS,6R,11bR)—N-benzyl-14-(cyclopropylmethyl)-10-hydroxy-N-isopropyl-3a,4,5,6,7,11c-hexahydro-1H-6,11b-(iminoethano)-1,5a-methanonaphtho[1,2-e]indole-3(2H)-carboxamide] |  |  | < 1 | 91 |  |  |  |  |  | > 1 | 47 | 3 |  | 
O=C(N1CCCCC1)N1C[C@H]2CC34CCC1C2C31CCN(CC2CC2)C4Cc2ccc(O)cc21 (stereo partly drawn) [Compound 167] |  |  | < 1 | 96 |  |  |  |  |  | > 1 | 22 | 4.6 |  | 
O=C(Oc1ccccc1)N1C[C@H]2CC34CCC1C2C31CCN(CC2CC2)C4Cc2ccc(O)cc21 (stereo partly drawn) [Compound 195] |  | 5.6 |  |  | > 1 | 27 |  |  |  |  |  |  | < 10 | 92
CC(C)COC(=O)N1C[C@H]2CC34CCC1C2C31CCN(CC2CC2)C4Cc2ccc(O)cc21 (stereo partly drawn) [Compound 196] |  |  | < 10 | 67 |  |  |  |  |  | > 1 | 12 | 7.6 |  | 
Oc1ccc2c(c1)[C@]13CCN(CC4CC4)[C@H](C2)[C@]12CCC1C3[C@@H](CN1c1ccccn1)C2 (stereo partly drawn) [Compound 221, (1S,5aS,6R,11bR)-14-(cyclopropylmethyl)-3-(pyridin-2-yl)-2,3,3a,4,5,6,7,11c-octahydro-1H-6,11b-(iminoethano)-1,5a-methanonaphtho[1,2-e]indol-10-ol] |  |  | < 1 | 90 |  |  | > 1 | 30 |  | > 1 | 42 |  |  | 
COc1ccc2c(c1)[C@]13CCN(CC4CC4)[C@H](C2)[C@]12CCC1C3[C@@H](CN1c1nc(C)cc(C)n1)C2 (stereo partly drawn) [Compound 222, (1S,5aS,6R,11bR)-14-(cyclopropylmethyl)-3-(4,6-dimethylpyrimidin-2-yl)-10-methoxy-2,3,3a,4,5,6,7,11c-octahydro-1H-6,11b-(iminoethano)-1,5a-methanonaphtho[1,2-e]indole] |  |  | < 10 | 105 |  |  | > 100 | 52 | 43 |  |  |  |  | 
Oc1ccc2c(c1)C13CCN(CC4CC4)C(C2)C12CCC1C3[C@@H](CN1c1nccs1)C2 (stereo partly drawn) [Compound 241] |  |  | < 10 | 81 |  |  |  |  |  | > 1 | 33 | 11 |  | 
Oc1ccc2c(c1)C13CCN(CC4CC4)C(C2)C12CCC1C3[C@@H](CN1c1nc(-c3ccccc3)cs1)C2 (stereo partly drawn) [Compound 242] |  |  | < 50 | 68 |  |  |  |  |  | > 10 | 47 | 9.2 |  | 
Cc1cc(C)nc(N2C[C@H]3CC45CCC2C3C42CCN(CC(F)(F)c3ccccc3)C5Cc3ccc(O)cc32)n1 (stereo partly drawn) [Compound 283] |  |  | < 50 | 91 |  |  | > 500 | 101 | 11 |  |  |  |  | 
Cc1cc(C)nc(N2C[C@H]3CC45CCC2C3C42CCN(C[C@H](C)O)C5Cc3ccc(O)cc32)n1 (stereo partly drawn) [Compound 285] |  |  | < 10 | 81 |  |  | > 10 | 48 |  | > 100 | 78 |  |  | 

— US8952030B2, “Morphinan derivative” (priority 2011, dated 2015)
